Source: patent EP0414895A1, “OROTATE OF $g(a)-AMINO-$g(b)-PHENYL-BUTYRIC ACID” (NAUCHNO-PROIZVODSTVENNOE OBIEDINENIE "BIOLAR", priority 1989, dated 1990)
Counter-ions that a name gives are not always drawn.

Tests used:
Assay type in all cases: in vivo
Mäuse [1] = experiment: Kalziumchlorid arrhythmia model, LD50 of Kalziumchlorid; details: Kalziumchlorid i.v. combined with compound 50 mg/kg
Procedure: Die antiarrhythmischen Eigenschaften der erfindungsgemässen Verbindung wurden auch am Modell der Kalziumchloridarrhythmie untersucht. Der Mäusengruppe (I0 Gruppe) wurde einmalig die Kalziumchloridlösung intravenös im einzelnen und in Kombination mit γ -Amino-β -phenylbuttersäurehydrochlorid eingeführt. Die Dosis der letzteren betrug 50 mg/kg. Es wurde LD₅₀ für Kalziumchlorid bestimmt.

Mäuse [2] = experiment: Strophantin toxicity (arrhythmia), time to death
From the text: Unter Berücksichtigung der Tatsache, dass einige Verbindungen, die ähnlich mit der erfindungsgemässen Verbindung eine sedative Wirkung besitzen, als symptomatische Mittel zur Behandlung von verschiedenen Arrhythmienarten angewendet werden können, wurde der Einfluss der erfindungsgemässen Verbindung auf die toxischen Strophantin-Effekte geprüft, die mit der Herzrhythmusstörung verbunden sind. Dazu wurde bei weissen Mäusen (die Gruppe aus I0 Tieren) die Zeit des Todeseintritts bei der intravenösen Einführung von Strophantin (0,0I%ige wässrige Lösung) im einzelnen und in Kombination mit der neuen Verbindung und mit γ -Amino--β -phenylbuttersäurehydrochlorid bestimmt. Die Ergebnisse dieser Versuche sind in der Tabelle 25 angeführt.

Mäuse [3] = experiment: Hemic hypoxia by intraperitoneal Natriumnitrit, survival; details: Natriumnitrit 200 mg/kg i.p. 15 min after compound
Procedure: Die gemische Hypoxie wurde durch die intraperitoneale und subkutane Verabreichung von Natriumnitrit in einer Dosis von 200 mg/kg den Gruppen zu I0 […] I5 min nach der Einführung der Prüfverbindungen erzeugt. Die Angaben sind in der Tabelle I2 (bei der intraperitonealen Einführung von Natriumnitrit) und Tabelle I3 (bei der subkutanen Einführung von Natriumnitrit) angeführt.

Mäuse [4] = experiment: Acute toxicity, mice
Procedure: Die akute Toxizität der beanspruchten Verbindung wurde an Mäusen und Ratten (die Gruppe aus 9 bis I2 Tieren) bei der intravenösen, intraperitonealen Einführung der beanspruchten Verbindung sowie bei deren Einführung in den Magen bestimmt.
Es wurden der letale Ausgang, der Allgemeinzustand, die Vergiftungssymptome registriert. LD₅₀ wurde nach der Methode von Lichtfield und Wilcoxon bestimmt. LD₅₀ der neuen Verbindung beträgt für Mäuse bei der intravenösen Einführung 580 mg/kg, bei der intraperitonealen Einführung I450 mg/kg, bei der Einführung in den Magen 4600 mg/kg; für Ratten bei der intraperitonealen Einführung beträgt LD₅₀ 883 mg/kg, bei der Einführung in den Magen - über I500 mg/kg.

Mäuse [5] = experiment: Hypoxia in barochamber (11000 m), survival
Procedure: Nach einer der Methoden wurden die Mäuse in der Barokammer untergebracht, die für die Höhe von II000 m über dem Meeresspiegel gehoben wurde. Die Hebung wurde mit einer Geschwindigkeit von 50 m/s verwirklicht. Der atmosphärische Tiefdruck wurde mit Hilfe der elektrischen Vakuumpumpe geschaffen.
Die beanspruchte Verbindung, Natriumoxybutyrat und Pyrazetam wurden 60 min vor dem Versuch enteral eingeführt. Der Schutzeffekt wurde nach der Überlebensdauer eingeschätzt. Die Angaben sind in Tabelle I0 angeführt.

Compound | Einfluss auf LD₅₀ von Kalziumchlorid (Mäuse [1]) | Zeit des Todeseintritts (Mäuse [2]; 50 mg/kg + Strophantin 1,7 mg/kg i.v.) | Verlängerung der Zeit des Todeseintritts der Tiere (Mäuse [2]; 50 mg/kg, Strophantin) | Überlebensdauer (Mäuse [3]; 50,0 mg/kg) | Überlebensdauer (Mäuse [3]; 100,0 mg/kg) | Überlebensdauer (Mäuse [3]; 200,0 mg/kg) | LD₅₀ (Mäuse [4]; into the stomach) [mg/kg] | LD₅₀ (Mäuse [4]; intravenous) [mg/kg] | Überlebensdauer (Mäuse [5]; 50,0 mg/kg enteral 60 min before) | Überlebensdauer (Mäuse [5]; 100,0 mg/kg enteral 60 min before) | Überlebensdauer (Mäuse [5]; 200,0 mg/kg enteral 60 min before)
NCC(CC(=O)O)c1ccccc1 (stereo not drawn) [γ-Amino-β-phenylbutter-säurehydrochlorid, γ -Amino- β -phenylbuttersäurehydrochlorid, reference compound] | keinen Einfluss | – | – | – | – | – | – | – | – | – | –
γ -Amino- β -phenylbuttersäureorotat [Erfindungsgemässe Verbindung] | – | 22,3 (8,9 - 35,6) min | 2,5 fache | 33,8±1,2 min | 53,1±4,1 min | 46,8±2,7 min | 4600 | 580 | 6,2±1,4 min | 7,5±2,1 min | 15,2±1,8 min
